The values that follow come from patent US12221494B2, “Short synthetic peptides and their uses for treating retinal degenerative diseases and/or tissue injuries” (MacKay Memorial Hospital, priority 2019, dated 2025).

The test system of the experiment is survivin mRNA. Description: Real-time qPCR of survivin mRNA in C2C12 cells. It counts as cell-based, mouse. Conditions: C2C12 cells in low serum media, 20 μM peptide, 6 h. As to the method: Total RNA was extracted from cells using TRIzol (Invitrogen). Synthesis of cDNA was performed with 1 μg of total RNA at 50° C. for 50 min using oligo(dT) primers and reverse transcriptase (Superscript III; Invitrogen). Briefly, quantification of cDNA was performed in the LightCycler (Roche, Mannheim, Germany) using the DNA Master SYBR Green I kit (Roche) with the following cycling conditions: initial denaturation at 95° C. for 10 min, followed by 40 cycles at 95° C. for 10 s, 60° C. for 10 s, and 72° C. for 10 s and a 5-min terminal incubation at 72° C. The data were calculated with AACt. The expression was then normalized against the expression of glyceraldehyde-3-phosphate dehydrogenase (GAPDH). The PCR primers were mouse Survivin sense, 5′-[…]-3′ (SEQ ID NO: 27), anti-sense, 5′-[…]-3′ (SEQ ID NO: 28) (accession number: NM_001012273.1; PCR product: 136 bp); mouse GAPDH sense, 5′-[…]-3′ (SEQ ID NO: 29), anti-sense, 5′-[…]-3′ (SEQ ID NO: 30) (NM_001289726.1; 149 bp). For analysis rabbit inflammatory gene expression, The PCR primers were rabbit TNF-αsense, 5′-[…]-3′ (SEQ ID NO: 31), anti-sense, 5′-[…]-3′ (SEQ ID NO: 32) (accession number: NM 001082263.1); rabbit IL-1βsense, 5′-[…]-3′(SEQ ID NO: 33), anti-sense, 5′-[…]-3′ (SEQ ID NO: 34) (NM 001082201.1); rabbit GAPDH sense, 5′-[…]-3′ (SEQ ID NO: 35), anti-sense, 5′-[…]-3′ (SEQ ID NO: 36) (accession number:NM 001082253.1). The cycle threshold (Ct) values of the PCR product and a GAPDH (Glyceraldehyde 3-phosphate dehydrogenase) control mRNA were used to calculate relative quantities of mRNA.
Similar to the approach in Example 1.2.1, the expression level of survivin mRNA in C2C12 cells was used as an indicator for the function of the 6-mer variants in Tables 3 to 5. Briefly, C2C12 cells in low serum media were treated with 20 μM the 6-mer variants for 6 h. […] The results also confirmed that alanine substation at the glutamic acid (E) residues would severely impair the 6-mer activity.
(In general: Quantitative PCR measures a nucleic acid by following its amplification.)

As for “NH2-(D-Ser)-Leu-Gly-Ala-Glu-Gln-COOH (SLGAEQ; HELM PEPTIDE1{[dS].L.G.A.E.Q}$$$$V2.0; SMILES CC(C)C[C@H](NC(=O)[C@H](N)CO)C(=O)NCC(=O)N[C@@H](C)C(=O)N[C@@H](CCC(=O)O)C(=O)N[C@@H](CCC(N)=O)C(=O)O) [6-mer dS]”, the “survivin mRNA induction, in words” value is listed as “increased the level of survivin mRNA”.
